The record followed here is PubChem BioAssay (NCI).

What all share (experiment): inhibition of tumour cell growth, NCI panel, 48 h
The subject of experiment [1] is IGROV1 ovarian.
For experiment [2], the system named is SK-OV-3 ovarian.
Experiment [3] concerns NCI-H460 lung.
Experiment [4] relates to K-562 leukemia.
Experiment [5] concerns OVCAR-5 ovarian.
Experiment [6] has as its system SF-268 CNS.
In experiment [7] the test system is A549 NSCLC.
For experiment [8], the system named is NCI-H522 lung.
Experiment [9] relates to MOLT-4 leukemia.
Experiment [10] deals with HCT-15 colon.

Molecules are shown by their SMILES. Values joined by “and” are separate entries in the source; they are usually repeats but may differ in a detail not shown here. Equal entries are not always repeated.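 Five concentrations, 48 hours, 96-well plates. GI50 marks 50% less growth. At the TGI there is no net growth.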

In the case of `CCC1(OC(=O)CN)C(=O)OCc2c1cc1n(c2=O)Cc2cc3cc4c(cc3nc2-1)OCO4` (centres undefined), the GI50 in experiment [1] is 97.5 nM and 36.7 nM; in [2], less than 10 nM; in experiment [3], less than 10 nM; in experiment [4] it was 51.2 nM and 22.5 nM; in experiment [5] it was less than 10 nM; in experiment [6], less than 10 nM. In addition, the GI50 in [7] was less than 10 nM; in experiment [8], 53.1 nM and < 10 nM; in experiment [9] it was less than 10 nM; in experiment [10], 126 nM and 48.3 nM. The TGI in [1] was 1550 nM and 527 nM; in experiment [2] it was 174 nM; in [3], 15.9 nM and 38.9 nM; in experiment [4], more than 100000 nM; in experiment [5], 114 nM and 219 nM; in experiment [6], more than 100000 nM. In addition, the TGI is 1200 nM and 347 nM in experiment [7]; 1430 nM and 243 nM in experiment [8]; 11.3 nM in [9]; 26800 nM and 10200 nM in [10].
As for `CCN(CCCl)c1cccc(NC(=O)c2ccc(C(=O)Nc3cccc(CN(C)C)c3)cc2)c1`, the TGI in [1] amounted to 1130 nM; in experiment [2], 4130 nM; in experiment [3] it was 1360 nM; in [4], 10900 nM; in [5] it was 32000 nM; in experiment [6] it was 4870 nM. The TGI in experiment [7] was determined as 12200 nM; in [8] it was 34.2 nM; in experiment [9], 1150 nM; in [10] it was 6580 nM.
Turning to `CS(=O)(=O)[O-].CS(=O)(=O)[O-].NC1CCCCC1N.[Pt+4]` (centres undefined), the GI50 in experiment [1] was more than 69400 nM; in experiment [2], more than 100000 nM; in [3] it was 47200 nM; in experiment [4], 79100 nM; in [5], more than 100000 nM; in [6], more than 65900 nM. Moreover, the GI50 in [7] was 80300 nM; in experiment [8], more than 71100 nM; in [9], 29000 nM; in [10] it was more than 100000 nM. Besides, the TGI in [1], in experiment [2], in experiment [3], in [4], in [5] and in experiment [6] was more than 100000 nM each time. Also, the TGI in experiment [7], in [8], in [9] and in experiment [10] was more than 100000 nM throughout.
On to `CCN(CC)/[N+]([O-])=N/O`, for which the TGI in experiment [1], in experiment [2], in experiment [3], in [4], in experiment [5] and in [6] was more than 100000 nM in each case. The TGI in experiment [7], in experiment [8], in experiment [9] and in experiment [10] was more than 100000 nM throughout.
In the case of `Cn1c(=O)n(CC2CS2)c2ccccc21` (centres undefined), the TGI in experiment [1], in [2], in experiment [3], in experiment [4], in experiment [5] and in experiment [6] was more than 100000 nM throughout. Moreover, the TGI in experiment [7], in experiment [8], in experiment [9] and in [10] was more than 100000 nM each time.
`CC1(C)[C@@H](OC(N)=O)C=C[C@]2(CO)[C@H]3CC[C@]4(C)[C@@H](c5ccc(=O)oc5)[C@@H](Cl)C[C@]4(O)C3=CC[C@@H]12`: the GI50 is 3.13 nM and 2.5 nM in experiment [1]; 4.74 nM in experiment [2]; less than 0.1 nM in [3]; 3.54 nM and 2.5 nM in experiment [4]; 4.26 nM in experiment [5]; less than 0.1 nM in [6]. Besides, the GI50 was less than 0.1 nM in [7], less than 0.1 nM in experiment [8], less than 0.1 nM in experiment [9] and 4.81 nM in [10]. Also, the TGI in [1] was 28.4 nM and 82.9 nM; in experiment [2] it was 30.6 nM; in experiment [3] it was 1.28 nM; in [4], 18.8 nM and 56.2 nM; in experiment [5], 16.3 nM; in [6], 2.54 nM. Besides, the values for the TGI in experiment [7], in experiment [8] and in [10] were 1.92 nM, 3.05 nM and 25.8 nM, respectively.
